{"source": "paper PMC3557166", "about": "“'Le Rouge et le Noir': A decline in flavone formation correlates with the rare color of black dahlia (Dahlia variabilis hort.) flowers” (BMC Plant Biology, 2012)", "key": {"[1]": {"biological_target": "T1, FNS II (cv. Aurora's Kiss, GQ489010) (Dahlia pinnata, UniProt G3BGL8)", "T1 construct": "full-length ORF in pYES2.1/V5-His-TOPO, expressed in S. cerevisiae INVSc1", "T1 sequence (G3BGL8 1-513)": "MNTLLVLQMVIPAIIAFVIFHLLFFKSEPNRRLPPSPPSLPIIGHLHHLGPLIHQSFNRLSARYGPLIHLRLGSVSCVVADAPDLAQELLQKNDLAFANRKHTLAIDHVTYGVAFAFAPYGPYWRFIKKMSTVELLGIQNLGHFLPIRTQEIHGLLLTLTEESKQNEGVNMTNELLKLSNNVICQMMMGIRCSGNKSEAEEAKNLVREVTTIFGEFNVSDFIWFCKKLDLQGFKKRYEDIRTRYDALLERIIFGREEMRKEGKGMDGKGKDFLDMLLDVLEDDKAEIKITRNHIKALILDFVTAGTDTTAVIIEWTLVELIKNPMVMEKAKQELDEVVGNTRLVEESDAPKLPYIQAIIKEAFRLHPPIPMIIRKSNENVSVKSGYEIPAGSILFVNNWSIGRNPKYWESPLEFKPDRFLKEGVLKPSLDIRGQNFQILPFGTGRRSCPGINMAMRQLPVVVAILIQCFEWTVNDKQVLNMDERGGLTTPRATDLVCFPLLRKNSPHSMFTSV", "assay": "[…]-flavanone conversion to flavone, TLC radioscan, recombinant yeast preparation", "type": "biochemical", "conditions": "NADPH; labelled compound"}, "[2]": {"biological_target": "T2, FNS II (cv. Chat Noir, GQ489008) (Dahlia pinnata, UniProt G3BGL6)", "T2 construct": "full-length ORF in pYES2.1/V5-His-TOPO, expressed in S. cerevisiae INVSc1", "T2 sequence (G3BGL6 1-514)": "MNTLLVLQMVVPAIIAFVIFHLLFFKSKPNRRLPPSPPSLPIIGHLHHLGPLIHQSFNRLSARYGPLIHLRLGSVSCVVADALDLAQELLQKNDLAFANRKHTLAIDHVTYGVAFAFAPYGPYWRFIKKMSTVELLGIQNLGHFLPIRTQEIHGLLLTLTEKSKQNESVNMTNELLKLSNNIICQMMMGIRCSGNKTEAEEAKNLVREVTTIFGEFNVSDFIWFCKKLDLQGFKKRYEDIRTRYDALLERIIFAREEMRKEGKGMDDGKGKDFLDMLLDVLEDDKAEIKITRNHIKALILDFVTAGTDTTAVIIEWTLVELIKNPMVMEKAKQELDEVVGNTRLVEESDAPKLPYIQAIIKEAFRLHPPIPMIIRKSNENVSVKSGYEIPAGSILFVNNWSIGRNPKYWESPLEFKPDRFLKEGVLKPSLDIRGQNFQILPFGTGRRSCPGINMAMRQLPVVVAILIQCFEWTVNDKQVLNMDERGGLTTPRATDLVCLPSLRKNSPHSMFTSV", "assay": "[…]-flavanone conversion to flavone, TLC radioscan, recombinant yeast preparation", "type": "biochemical", "conditions": "NADPH; labelled compound"}, "[3]": {"biological_target": "T3, FNS II (cv. Feuerschein, GQ479806) (Dahlia pinnata, UniProt G8Z369)", "T3 construct": "gene DvFNS1; full-length ORF in pYES2.1/V5-His-TOPO, expressed in S. cerevisiae INVSc1", "T3 sequence (G8Z369 1-514)": "T2 sequence (G3BGL6 1-514) with V11I, L83P, D266E, L499F, S501L", "assay": "[…]-flavanone conversion to flavone, TLC radioscan, recombinant yeast preparation", "type": "biochemical", "conditions": "NADPH; labelled compound"}, "[4]": {"biological_target": "T4, FNS II (cv. White Alva, GQ489011) (Dahlia pinnata, UniProt G3BGL9)", "T4 construct": "full-length ORF in pYES2.1/V5-His-TOPO, expressed in S. cerevisiae INVSc1", "T4 sequence (G3BGL9 1-513)": "T1 sequence (G3BGL8 1-513) with I19L, E28K, A80V, L157Q, E162K, G168S, F224C, V462I", "assay": "[…]-flavanone conversion to flavone, TLC radioscan, recombinant yeast preparation", "type": "biochemical", "conditions": "NADPH; labelled compound"}, "[5]": {"test_system": "T5, recombinant FNS II (cv. Rubens GQ479808 and cv. Chat Noir GQ489009)", "T5 construct": "full-length ORF in pYES2.1/V5-His-TOPO, expressed in S. cerevisiae INVSc1", "assay": "[…]-flavanone conversion to apigenin, TLC radioscan, recombinant yeast preparation", "type": "biochemical, Dahlia pinnata", "conditions": "NADPH; pH optimum 6.50; 25-30°C optimum; labelled compound; clone (GQ479808 or GQ489009) not told; read-out: apparent Km"}, "[6]": {"biological_target": "T6, FNS II (cv. Alva's Supreme, GQ479807) (Dahlia pinnata, UniProt G8Z370)", "T6 construct": "full-length ORF in pYES2.1/V5-His-TOPO, expressed in S. cerevisiae INVSc1", "T6 sequence (G8Z370 1-514)": "T2 sequence (G3BGL6 1-514) with V11I, L83P, C184Y, L499F, S501L", "assay": "[…]-flavanone conversion to flavone, TLC radioscan, recombinant yeast preparation", "type": "biochemical", "conditions": "NADPH; labelled compound"}, "[7]": {"biological_target": "T7, FNS II (cv. Rubens, GQ479809) (Dahlia pinnata, UniProt G8Z372)", "T7 construct": "full-length ORF in pYES2.1/V5-His-TOPO, expressed in S. cerevisiae INVSc1", "T7 sequence (G8Z372 1-513)": "T1 sequence (G3BGL8 1-513) with F24V, E162K, G168S, K421E, D482N, T489A, S512L", "assay": "[…]-flavanone conversion to flavone, TLC radioscan, recombinant yeast preparation", "type": "biochemical", "conditions": "NADPH; labelled compound"}, "[8]": {"test_system": "T5, recombinant FNS II (cv. Rubens GQ479808 and cv. Chat Noir GQ489009)", "assay": "[…]-flavanone conversion to luteolin, TLC radioscan, recombinant yeast preparation", "type": "biochemical, Dahlia pinnata", "conditions": "NADPH; pH optimum 7.50; 25-30°C optimum; labelled compound; clone (GQ479808 or GQ489009) not told; read-out: apparent Km"}}, "note": "Numbering of substitutions follows the chain as printed.", "data": [{"smiles": "O=C1C[C@@H](c2ccc(O)cc2)Oc2cc(O)cc(O)c21", "note": "[naringenin]", "values": [{"measurement": "14C-flavanone conversion to flavone, TLC radioscan, recombinant yeast preparatio", "setting": "[1]", "result": "formation of apigenin and luteolin from naringenin and eriodictyol, respectively"}, {"measurement": "14C-flavanone conversion to flavone, TLC radioscan, recombinant yeast preparatio", "setting": "[2]", "result": "formation of apigenin and luteolin from naringenin and eriodictyol, respectively"}, {"measurement": "14C-flavanone conversion to flavone, TLC radioscan, recombinant yeast preparatio", "setting": "[3]", "result": "formation of apigenin and luteolin from naringenin and eriodictyol, respectively"}, {"measurement": "14C-flavanone conversion to flavone, TLC radioscan, recombinant yeast preparatio", "setting": "[4]", "result": "formation of apigenin and luteolin from naringenin and eriodictyol, respectively"}, {"measurement": "Km", "setting": "[5]", "result": 3.86, "unit": "µM"}, {"measurement": "14C-flavanone conversion to flavone, TLC radioscan, recombinant yeast preparatio", "setting": "[6]", "result": "formation of apigenin and luteolin from naringenin and eriodictyol, respectively"}, {"measurement": "14C-flavanone conversion to flavone, TLC radioscan, recombinant yeast preparatio", "setting": "[7]", "result": "formation of apigenin and luteolin from naringenin and eriodictyol, respectively"}]}, {"smiles": "O=C1C[C@@H](c2ccc(O)c(O)c2)Oc2cc(O)cc(O)c21", "note": "[eriodictyol]", "values": [{"measurement": "14C-flavanone conversion to flavone, TLC radioscan, recombinant yeast preparatio", "setting": "[1]", "result": "formation of apigenin and luteolin from naringenin and eriodictyol, respectively"}, {"measurement": "14C-flavanone conversion to flavone, TLC radioscan, recombinant yeast preparatio", "setting": "[2]", "result": "formation of apigenin and luteolin from naringenin and eriodictyol, respectively"}, {"measurement": "14C-flavanone conversion to flavone, TLC radioscan, recombinant yeast preparatio", "setting": "[3]", "result": "formation of apigenin and luteolin from naringenin and eriodictyol, respectively"}, {"measurement": "14C-flavanone conversion to flavone, TLC radioscan, recombinant yeast preparatio", "setting": "[4]", "result": "formation of apigenin and luteolin from naringenin and eriodictyol, respectively"}, {"measurement": "Km", "setting": "[8]", "result": 4.2, "unit": "µM"}, {"measurement": "14C-flavanone conversion to flavone, TLC radioscan, recombinant yeast preparatio", "setting": "[6]", "result": "formation of apigenin and luteolin from naringenin and eriodictyol, respectively"}, {"measurement": "14C-flavanone conversion to flavone, TLC radioscan, recombinant yeast preparatio", "setting": "[7]", "result": "formation of apigenin and luteolin from naringenin and eriodictyol, respectively"}]}]}
